# From US7354920B2, “Aryl and heteroaryl morpholine derivatives” (Eli Lilly and Company, priority 2002, dated 2008)
# pKi: −log10 of the molar value. Counter-ions that a name gives are not always drawn. Like-named read-outs stand apart in the source and are kept apart here.
# Biological target: T1, human norepinephrine transporter (Homo sapiens, UniProt P23975)
# T1 construct: isolate and amplify each of the three full-length cDNAs from an appropriate cDNA library; expressed in transfected cells; host or cells: HEK293 cells, stably transfected (pcDNA3.1-type vector); membranes used
# Assay: Scintillation proximity assay, [3H]-nisoxetine binding at the norepinephrine transporter
# T1 sequence (P23975 whole entry): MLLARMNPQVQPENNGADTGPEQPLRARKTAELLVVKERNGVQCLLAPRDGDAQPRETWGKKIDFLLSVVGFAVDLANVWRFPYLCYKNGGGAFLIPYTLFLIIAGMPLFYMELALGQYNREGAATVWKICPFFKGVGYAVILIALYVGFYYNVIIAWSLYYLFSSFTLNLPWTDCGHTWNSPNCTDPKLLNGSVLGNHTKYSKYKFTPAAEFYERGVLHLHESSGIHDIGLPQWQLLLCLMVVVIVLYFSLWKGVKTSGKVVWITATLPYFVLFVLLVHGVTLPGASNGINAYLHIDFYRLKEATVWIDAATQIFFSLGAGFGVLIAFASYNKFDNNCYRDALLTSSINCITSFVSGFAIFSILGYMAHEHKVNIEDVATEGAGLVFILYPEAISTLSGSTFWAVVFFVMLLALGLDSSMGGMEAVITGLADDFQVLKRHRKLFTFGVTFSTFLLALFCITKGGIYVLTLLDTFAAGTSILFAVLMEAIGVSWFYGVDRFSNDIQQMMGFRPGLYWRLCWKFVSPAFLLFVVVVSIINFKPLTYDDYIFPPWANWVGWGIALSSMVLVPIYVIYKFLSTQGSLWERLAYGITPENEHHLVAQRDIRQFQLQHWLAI
compound,measurement,setting,value
"OC(Cc1ccccc1OC(F)(F)F)(c1ccccc1)[C@H]1CNCCO1 (stereo in doubt) [Example 5, (S,R) 1-Morpholin-2-yl-1-phenyl-2-(2-trifluoromethoxy-phenyl)-ethanol hydrochloride]",pKi,"scintillation proximity assay, 3H-nisoxetine, HEK-293 membranes, read-out: NET Ki",7.91
"COc1ccc(F)cc1CC(O)(c1ccccc1)[C@H]1CNCCO1 (stereo in doubt) [Example 8, (S,R) 2-(5-Fluoro-2-methoxy-phenyl)-1-morpholin-2-yl-1-phenyl-ethanol hydrochloride]",pKi,,8.44
